What all share (assay type): in vivo
For one experiment, the system named is Amaranthus retroflexus. Put plainly: Post-emergence herbicidal action, AMARE. Details: key: % herbicidal action vs untreated; 100 = plants died, 0 = like control. The gist of the method:
(§1)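 Greenhouse weeds grown in sandy loam were sprayed at the one-leaf stage, 2–3 weeks after sowing, with WP or EC formulations at 600–800 l/ha water plus 0.2% wetting agent. Damage scored visually about 3 weeks later, in percent against untreated controls (100% = plants dead).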

Another experiment has as its system Polygonum convolvulus. Put plainly: Post-emergence herbicidal action, POLCO. The gist of the method:
as §1

Experiment [1] concerns Lolium multiflorum. Put plainly: Pre-emergence herbicidal action, LOLMU. The note with it: dosage 320 g/ha, scored visually after 3 weeks vs untreated controls (100% = plants have died). From the text: 1. Pre-Emergence Herbicidal Action Against Harmful Plants Seeds of monocotyledonous and dicotyledonous weed plants and crop plants are laid out in sandy loam soil in wood-fiber pots and covered with soil. The compounds of the invention, formulated in the form of wettable powders (WP) or as emulsion concentrates (EC), are then applied to the surface of the covering soil in the form of an aqueous suspension or emulsion at a water application rate equating to 600 to 800 l/ha, with addition of 0.2% wetting agent. After the treatment, the pots are placed in a greenhouse and kept under good growth conditions for the trial plants. The damage to the test plants is scored visually after a test period of 3 weeks by comparison with untreated controls (herbicidal activity in percent (%): 100% activity=the plants have died, 0% activity=like control plants). […] The tables below illustrate, in an exemplary manner, the […] herbicidal action of the compounds according to the invention, the herbicidal activity being stated in percent. [table] In the experiments that follow, herbicidal action of numerous inventive compounds and the known compounds that are structurally closest from D1 (WO 2012/028579 A1) and D2 (WO 2018/202535 A1) were compared under the above-specified conditions by the pre-emergence and post-emergence method. The example numbers given in the tables relate to the compounds disclosed in the respective documents. In addition to the compounds disclosed in D1 and D2, the following compounds V-1 to V-14 that are encompassed by D1 or D2 but are not compounds specified therein were used in the comparative experiments: • V-1: 2-(methylsulfanyl)-3-(methylsulfinyl)-N-(1-methyl-1H-tetrazol-5-yl)-4-(trifluoromethyl)benzamide • V-2: 2-(methylsulfanyl)-3-(methylsulfonyl)-N-(1-methyl-1H-tetrazol-5-yl)-4-(trifluoromethyl)benzamide • V-3: 2,3-bis(ethylsulfanyl)-N-(1-methyl-1H-tetrazol-5-yl)-4-(trifluoromethyl)benzamide • V-4: 2-chloro-3-(ethylsulfanyl)-N-(1-methyl-1H-tetrazol-5-yl)-4-(trifluoromethyl)benzamide • V-5: 2-chloro-4-iodo-3-(methylsulfanyl)-N-(1-methyl-1H-tetrazol-5-yl)benzamide • V-6: 2-chloro-4-iodo-3-(methylsulfinyl)-N-(1-methyl-1H-tetrazol-5-yl)benzamide • V-7: 2-chloro-4-iodo-3-(methylsulfonyl)-N-(1-methyl-1H-tetrazol-5-yl)benzamide • V-8: 2-bromo-3-(methylsulfanyl)-N-(1-methyl-1H-tetrazol-5-yl)-4-(trifluoromethyl)benzamide • V-9: 2-bromo-3-(methylsulfinyl)-N-(1-methyl-1H-tetrazol-5-yl)-4-(trifluoromethyl)benzamide • V-10: 2-bromo-3-(methylsulfonyl)-N-(1-methyl-1H-tetrazol-5-yl)-4-(trifluoromethyl)benzamide • V-11: 2-bromo-3-(ethylsulfanyl)-N-(1-methyl-1H-tetrazol-5-yl)-4-(trifluoromethyl)benzamide • V-12: 2-bromo-3-(ethylsulfinyl)-N-(1-methyl-1H-tetrazol-5-yl)-4-(trifluoromethyl)benzamide • V-13: 2-bromo-3-(ethylsulfonyl)-N-(1-methyl-1-1H-tetrazol-5-yl)-4-(trifluoromethyl)benzamide • V-14: 2-cyclopropyl-3-(ethylsulfanyl)-N-(1-methyl-1H-tetrazol-5-yl)-4-(trifluoromethyl)benzamide Herbicidal Pre-Emergence Action: […]

Another experiment relates to Cyperus esculentus. Put plainly: Post-emergence herbicidal action, CYPES. Details: key: % herbicidal action vs untreated; 100 = plants died, 0 = like control. The method in brief:
as §1

For another experiment, the system named is Pharbitis purpurea. Put plainly: Pre-emergence herbicidal action, PHBPU. The following applies: dosage 320 g/ha, scored visually after 3 weeks vs untreated controls (100% = plants have died). The gist of the method:
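Application took place on the soil surface immediately after sowing into sandy loam, using aqueous WP or EC preparations with 0.2% wetting agent. Visual percent scoring followed 3 weeks later, untreated pots serving as reference.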

For experiment [2], the system named is Lolium multiflorum. Kind of experiment: Post-emergence herbicidal action, LOLMU. On the set-up: key: % herbicidal action: 100 = plants died, 0 = like control. The method in brief: as §1

Take `CCCn1nnnc1NC(=O)c1ccc(C(F)(F)F)c(CSCC)c1Cl` [Example 3-299]: the “herbicidal action AMARE” value in the experiment with Amaranthus retroflexus (Dosage 80 g/ha) is 90. Further, the “herbicidal action POLCO” value in the experiment on Polygonum convolvulus (Dosage 80 g/ha) was 80. Moreover, the “herbicidal activity LOLMU” value with Lolium multiflorum [1] was determined as 90%.
For the compound `CCn1nnnc1NC(=O)c1ccc(C(F)(F)F)c(CSC)c1SC` [Example 2-161], the “herbicidal action AMARE” value in the experiment with Amaranthus retroflexus (post-emergence, dosage 80 g/ha) stood at 100%. For the same compound, the “herbicidal action CYPES” value with Cyperus esculentus (post-emergence, dosage 80 g/ha) came to 80%. The “herbicidal action POLCO” value with Polygonum convolvulus (post-emergence, dosage 80 g/ha) was found to be 100%. Also, the “herbicidal activity LOLMU” value in the experiment with Lolium multiflorum [1] came out at 80%.
As to `Cn1nnnc1NC(=O)c1ccc(C(F)(F)F)c(C[S+](C)[O-])c1Br` (centres unmarked) [Example 1-381], the “herbicidal activity PHBPU” value with Pharbitis purpurea worked out at 80%. In addition, the “herbicidal action AMARE” value in the experiment on Amaranthus retroflexus (post-emergence, dosage 80 g/ha) is recorded as 100%. Also, the “herbicidal action CYPES” value in the experiment with Cyperus esculentus (post-emergence, dosage 80 g/ha) was 90%. Also, the “herbicidal action LOLMU” value with Lolium multiflorum [2] (post-emergence, dosage 80 g/ha) is 80%. Besides, the “herbicidal action POLCO” value with Polygonum convolvulus (post-emergence, dosage 80 g/ha) stood at 80%.
With `Cc1c(C(=O)Nc2nnnn2C)ccc(C(F)(F)F)c1CS(C)(=O)=O` [Example 1-85], the “herbicidal action AMARE” value in the experiment on Amaranthus retroflexus (Dosage 80 g/ha) is 90. Also, the “herbicidal action CYPES” value in the experiment with Cyperus esculentus (Dosage 80 g/ha) amounted to 80. Further, in the experiment with Lolium multiflorum [2] (Dosage 80 g/ha), the “herbicidal action LOLMU” value came to 80. For the same compound, the “herbicidal action POLCO” value in the experiment with Polygonum convolvulus (Dosage 80 g/ha) came out at 80.
With `CSCc1c(C(F)(F)F)ccc(C(=O)Nc2nnnn2C)c1SC` [Example 1-161], in the experiment on Amaranthus retroflexus (Dosage 80 g/ha), the “herbicidal action AMARE” value is reported as 100. In addition, the “herbicidal action CYPES” value in the experiment with Cyperus esculentus (Dosage 80 g/ha) is on record as 80. The “herbicidal activity LOLMU” value in the experiment on Lolium multiflorum [1] is 90%.
For `CCn1nnnc1NC(=O)c1ccc(C(F)(F)F)c(CS(C)(=O)=O)c1Br` [Example 2-382], the “herbicidal action AMARE” value with Amaranthus retroflexus (Dosage 80 g/ha) is listed as 90. In addition, the “herbicidal action POLCO” value in the experiment on Polygonum convolvulus (Dosage 80 g/ha) turned out to be 80. The “herbicidal activity LOLMU” value in the experiment with Lolium multiflorum [1] is recorded as 80%.
For `Cn1nnnc1NC(=O)c1ccc(Cl)c(CS(C)(=O)=O)c1Cl` [Example 1-561], the “herbicidal action AMARE” value with Amaranthus retroflexus (Dosage 80 g/ha) amounted to 100. Besides, the “herbicidal action CYPES” value in the experiment with Cyperus esculentus (Dosage 80 g/ha) is on record as 80. In the experiment on Lolium multiflorum [1], the “herbicidal activity LOLMU” value came out at 80%.
Consider `CCn1nnnc1NC(=O)c1ccc(C(F)(F)F)c(C[S+](C)[O-])c1Br` (centres unmarked) [Example 2-381], for which, in the experiment on Pharbitis purpurea, the “herbicidal activity PHBPU” value amounted to 80%. Besides, in the experiment on Amaranthus retroflexus (post-emergence, dosage 80 g/ha), the “herbicidal action AMARE” value is 90%. Besides, the “herbicidal action LOLMU” value in the experiment with Lolium multiflorum [2] (post-emergence, dosage 80 g/ha) turned out to be 80%. In the experiment on Polygonum convolvulus (post-emergence, dosage 80 g/ha), the “herbicidal action POLCO” value worked out at 90%. The “herbicidal activity LOLMU” value in the experiment on Lolium multiflorum [1] was found to be 80%.
With `CCCn1nnnc1NC(=O)c1ccc(C(F)(F)F)c(CSC)c1Cl` [Example 3-296], the “herbicidal action AMARE” value with Amaranthus retroflexus (Dosage 80 g/ha) came to 100. In the experiment on Lolium multiflorum [1], the “herbicidal activity LOLMU” value worked out at 80%.
In the case of `CCCn1nnnc1NC(=O)c1ccc(C(F)(F)F)c(CSCC)c1Br` [Example 3-383], the “herbicidal action AMARE” value in the experiment on Amaranthus retroflexus (Dosage 80 g/ha) was 90. For the same compound, the “herbicidal action POLCO” value in the experiment with Polygonum convolvulus (Dosage 80 g/ha) is 90. Besides, in the experiment on Lolium multiflorum [1], the “herbicidal activity LOLMU” value is on record as 80%.
In the case of `CCn1nnnc1NC(=O)c1ccc(C(F)(F)F)c(CSC)c1Br` [Example 2-380], the “herbicidal activity PHBPU” value in the experiment with Pharbitis purpurea came out at 80%. Also, the “herbicidal action AMARE” value in the experiment on Amaranthus retroflexus (post-emergence, dosage 80 g/ha) is recorded as 80%. The “herbicidal action LOLMU” value in the experiment with Lolium multiflorum [2] (post-emergence, dosage 80 g/ha) is listed as 80%. Further, in the experiment with Polygonum convolvulus (post-emergence, dosage 80 g/ha), the “herbicidal action POLCO” value turned out to be 90%.
Regarding `CCCn1nnnc1NC(=O)c1ccc(C(F)(F)F)c(CS(=O)(=O)CC)c1Br` [Example 3-385], the “herbicidal action AMARE” value in the experiment on Amaranthus retroflexus (Dosage 80 g/ha) is on record as 90. For the same compound, in the experiment on Polygonum convolvulus (Dosage 80 g/ha), the “herbicidal action POLCO” value is recorded as 90. The “herbicidal activity LOLMU” value in the experiment on Lolium multiflorum [1] worked out at 90%.
`CCSCc1c(C(F)F)ccc(C(=O)Nc2nnnn2C)c1SCC` [Example 1-191]: the “herbicidal action AMARE” value in the experiment on Amaranthus retroflexus (Dosage 80 g/ha) is given as 80. Besides, in the experiment on Polygonum convolvulus (Dosage 80 g/ha), the “herbicidal action POLCO” value is recorded as 90. Further, the “herbicidal activity LOLMU” value in the experiment with Lolium multiflorum [1] amounted to 80%.
Consider `Cc1c(C(=O)Nc2nnnn2C)ccc(C(F)(F)F)c1C[S+](C)[O-]` (centres unmarked) [Example 1-84], for which, in the experiment with Pharbitis purpurea, the “herbicidal activity PHBPU” value came to 80%. In addition, in the experiment on Amaranthus retroflexus (post-emergence, dosage 80 g/ha), the “herbicidal action AMARE” value was determined as 90%. In addition, the “herbicidal action CYPES” value with Cyperus esculentus (post-emergence, dosage 80 g/ha) came to 80%. For the same compound, in the experiment with Lolium multiflorum [2] (post-emergence, dosage 80 g/ha), the “herbicidal action LOLMU” value is 80%.
For the compound `CCSCc1c(C(F)(F)F)ccc(C(=O)Nc2nnnn2CC)c1Br` [Example 2-383], the “herbicidal action AMARE” value with Amaranthus retroflexus (post-emergence, dosage 80 g/ha) is 100%. In the experiment with Lolium multiflorum [2] (post-emergence, dosage 80 g/ha), the “herbicidal action LOLMU” value came to 80%. The “herbicidal action POLCO” value in the experiment with Polygonum convolvulus (post-emergence, dosage 80 g/ha) is recorded as 90%. In addition, the “herbicidal activity LOLMU” value in the experiment with Lolium multiflorum [1] turned out to be 100%.
